Assay [1] has as its system Triticum aestivum (TRZAS). Put plainly: In vivo analyses Part C: drought stress, appearance vs stressed control plants in categories (TRZAS). Particulars: appearance vs stressed control plants after recovery phase, efficacy range of 3-4 pots. Also on record: key: 0: no positive effect; 10: slight positive effect; 20: clear positive effect; 30: strong positive effect. The method, then: Seeds of monocotyledonous and dicotyledonous crop plants were sown in sandy loam in plastic or wood-fibre pots, covered with soil or sand and cultivated in a greenhouse under good growth conditions. The test plants were treated at the early leaf stage (BBCH10-BBCH13). To assure uniform water supply before commencement of stress, the potted plants were supplied with water by dam irrigation prior to substance application. The inventive compounds were first formulated as wettable powders (WP) or dissolved in a solvent mixture. The further dilution was effected with water supplemented with 0.2% wetting agent (e.g. agrotin). The finished spray liquor was sprayed onto the green parts of the plant at an equivalent water application rate of 600 I/ha. Substance application was followed immediately by stress treatment of the plants. For this purpose, the wood-fibre pots were transferred in plastic inserts in order to prevent them from subsequently drying out too quickly. Drought stress was induced by gradual drying out under the following conditions: “Day”: 14 hours with illumination at 26-30° C. “Night”: 10 hours without illumination at 18-20° C. The duration of the respective stress phases was guided mainly by the condition of the stressed control plants. It was ended (by re-irrigating and transfer to a greenhouse with good growth conditions) as soon as irreversible damage was observed on the stressed control plants. The end of the stress phase was followed by an about 4-7-day recovery phase, during which the plants were once again kept under good growth conditions in a greenhouse. The duration of the recovery phase was guided mainly by when the trial plants had attained a state which enabled visual scoring of potential effects, and was therefore variable. Once this juncture had been reached, the appearance of the plants treated with test substances was recorded in comparison to the stressed control plants by the following categories: [table] For each substance and dosage, 3-4 pots were treated and evaluated. TRZAS=Triticum aestivum

Assay [2] has as its target T1, phosphatase ABI1 via the co-regulator RCAR11/PYR1 (Arabidopsis thaliana, UniProt O49686+P49597).
T1 sequence (O49686 1-191): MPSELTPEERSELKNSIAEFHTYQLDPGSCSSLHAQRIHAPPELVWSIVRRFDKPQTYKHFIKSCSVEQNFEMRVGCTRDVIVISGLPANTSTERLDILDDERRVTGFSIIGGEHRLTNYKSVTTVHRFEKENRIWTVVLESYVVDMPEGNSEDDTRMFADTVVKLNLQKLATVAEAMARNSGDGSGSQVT
T1 sequence (P49597 1-434): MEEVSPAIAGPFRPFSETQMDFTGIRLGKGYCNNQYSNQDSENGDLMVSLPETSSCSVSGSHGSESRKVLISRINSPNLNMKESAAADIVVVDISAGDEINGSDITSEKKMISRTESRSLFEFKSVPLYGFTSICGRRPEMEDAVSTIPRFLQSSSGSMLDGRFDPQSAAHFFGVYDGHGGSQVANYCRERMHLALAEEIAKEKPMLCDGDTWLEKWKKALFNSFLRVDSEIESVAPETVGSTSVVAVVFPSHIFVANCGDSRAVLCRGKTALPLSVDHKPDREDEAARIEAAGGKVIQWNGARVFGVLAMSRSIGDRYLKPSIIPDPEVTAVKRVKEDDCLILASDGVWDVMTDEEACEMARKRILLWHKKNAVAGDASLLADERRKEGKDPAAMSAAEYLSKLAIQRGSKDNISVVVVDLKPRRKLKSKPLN
Nature of the assay: In vitro assay: inhibition of the phosphatase ABI1 via the co-regulator RCAR11/PYR1, MUP dephosphorylation, fluorescence. More on the design: inhibition: dose or concentration left out as unconfirmed. Particulars: MUP dephosphorylation, fluorescence 460 nm; for ABI1 inhibition: concentration of 5 mM of the substance in a solution of DMSO and water; for inhibition: read-out: ABI1 inhibition. In kind it is biochemical. From the text: Effects of the phytohormone abscisic acid (ABA) on the behaviour of plants under abiotic stress and the mechanism of action of ABA are described in the literature (cf. Abrams et al, WO97/23441, Cutler, Park et al. Science, 2009, 324, 1068; Grill et al. Science, 2009, 324, 1064; Tanokura et al. Biophysics, 2011, 7, 123; Schroeder et al. Plant J. 2010, 61, 290). Therefore, it is possible with the aid of a suitable in vitro test system to derive a correlation between the action of ABA and the stress response of a plant under abiotic stress. Under drought stress, plants form the phytohormone abscisic acid (ABA). This binds, along with a co-regulator (Regulatory Component of ABA-Receptor=RCAR according to Grill et al. Science, 2009, 324, 1064 or PYR/PYL according to Cutler et al. Science, 2009, 324, 1068), to a phosphatase (e.g. ABI1, a type 2C protein phosphatase, also abbreviated to PP2C) and inhibits its activity. As a result, a “downstream” kinase (e.g. SnRK2) is no longer dephosphorylated. This kinase, which is thus active, via phosphorylation of transcription factors (e.g. AREB/ABF, vgl. Yoshida et al., Plant J. 2010, 61, 672), switches on a genetic protection programme to increase drought stress tolerance.
The assay described hereinafter utilizes the inhibition of the phosphatase ABI1 via the co-regulator RCAR11/PYR1 aus Arabidopsis thaliana.
For the determination of activity, the dephosphorylation of 4-methylumbelliferyl phosphate (MUP) was measured at 460 nm. The in vitro assay was conducted in Greiner 384-well PS microplates F-well, using two controls: a) dimethyl sulphoxide (DMSO) 0.5% (f.c.) and b) 5 μM (f.c.) abscisic acid (ABA). […] The substance solution thus obtained, if necessary, was stirred with esterase from porcine liver (EC 3.1.1.1) at room temperature for 3 h and centrifuged at 4000 rpm for 30 min. A total volume of 45 μl was introduced into each cavity of the microplate, having the following composition: • 1) 5 μl of substance solution, i.e. a) DMSO 5% or b) abscisic acid solution or c) the corresponding example compound of the general formula (I) dissolved in 5% DMSO. • 2) 20 μl of enzyme buffer mix, composed of a) 40% by vol. of enzyme buffer (10 ml contain equal proportions by volume of 500 mM Tris-HCl pH8, 500 mM NaCl, 3.33 mM MnCl2, 40 mM dithiothreitol (DTT)), b) 4% by vol. of ABI1 dilution (protein stock solution was diluted so as to give, after addition, a final concentration in the assay of 0.15 μg ABI1/well), c) 4% by vol. of RCAR11 dilution (enzyme stock was diluted so as to give, on addition of the dilution to the enzyme buffer mix, a final concentration in the assay of 0.30 μg enzyme/well), d) 5% by vol. of Tween20 (1%), e) 47% by vol. H2O bi-dist. • 3) 20 μl of substrate mix, composed of a) 10% by vol. of 500 mM Tris-HCl pH8, b) 10% by vol. of 500 mM NaCl, c) 10% by vol. of 3.33 mM MnCl2, d) 5% by vol. of 25 mM MUP, 5% by vol. of Tween20 (1%), 60% by vol. of H2O bi-dist.
Enzyme buffer mix and substrate mix were made up 5 minutes prior to the addition and warmed to a temperature of 35° C. On completion of pipetting of all the solutions and on completion of mixing, the plate was incubated at 35° C. for 20 minutes. Finally, a relative fluorescence measurement was made at 35° C. with a BMG Labtech “POLARstar Optima” microplate reader using a 340/10 nm excitation filter and a 460 nm emission filter. The efficacy of the compounds of the general formula (I) is reported in the table which follows using abscisic acid (No. 64) as comparative substance according to the following classification: ++++ (inhibition≥90%), +++ (90%>inhibition≥70%), ++ (70%>inhibition≥50%), +(50%>inhibition≥30%).
Effects of selected compounds of the general formula (I) in the above-described in vitro assay at a concentration of 5 mM of the substance of the general formula (I) in question in a solution of DMSO and water: […]

Assay [3] relates to Brassica napus (BRSNS). Nature of the assay: In vivo analyses Part B: drought stress, appearance vs stressed control plants in categories (BRSNS). Also on record: key: 0: no positive effect; 10: slight positive effect; 20: clear positive effect; 30: strong positive effect. Particulars: category vs stressed control plants, 2-3 pots. The method, then:
Seeds of monocotyledonous and dicotyledonous crop plants were sown in sandy loam in plastic pots, covered with soil or sand and cultivated in a greenhouse under good growth conditions. The test plants were treated at the early leaf stage (BBCH10-BBCH13). To assure uniform water supply before commencement of stress, the potted plants were supplied with water by dam irrigation prior to substance application. The inventive compounds, formulated in the form of wettable powders (WP), were sprayed onto the green parts of the plants as an aqueous suspension at an equivalent water application rate of 600 I/ha with addition of 0.2% wetting agent (e.g. agrotin). Substance application was followed immediately by stress treatment of the plants. Drought stress was induced by gradual drying out under the following conditions: “Day”: 14 hours with illumination at 26-30° C. “Night”: 10 hours without illumination at 18-20° C. The duration of the respective stress phases was guided mainly by the condition of the stressed control plants. It was ended (by re-irrigating and transfer to a greenhouse with good growth conditions) as soon as irreversible damage was observed on the stressed control plants. The end of the stress phase was followed by an about 4-7-day recovery phase, during which the plants were once again kept under good growth conditions in a greenhouse. The duration of the recovery phase was guided mainly by when the trial plants had attained a state which enabled visual scoring of potential effects, and was therefore variable. Once this juncture had been reached, the appearance of the plants treated with test substances was recorded in comparison to the stressed control plants by the following categories: [table] In order to rule out any influence on the effects observed by any fungicidal or insecticidal action of the test compounds, it was additionally ensured that the tests proceeded without fungal infection or insect infestation. For each substance and dosage, 2-3 pots were treated and evaluated. BRSNS=Brassica napus

Regarding `CCOC(=O)C=C(C)C#CC(O)(C(CC)CC)C1(C#N)CC1` (racemic) [I.1-732], in assay [1] (dosage 25 g/ha), the “Effect (TRZAS)” value is reported as 10. Also, the ABI1 inhibition result in assay [2] is on record as “++++ (inhibition≥90%)”.

On to `CCC(C#CC(O)(C1(C#N)CC1)C12CC3CC(CC(C3)C1)C2)=CC(=O)OC` (racemic) [I.1-738], for which, in assay [1] (dosage 25 g/ha), the “Effect (TRZAS)” value was found to be 10.

Take `COC(=O)C=C(C#CC(O)(C1(C#N)CC1)C12CC3CC(CC(C3)C1)C2)C(F)(F)F` (racemic) [I.1-752]: in assay [1] (dosage 25 g/ha), the “Effect (TRZAS)” value turned out to be 10.

`CCOC(=O)C=C(C#CC(O)(C1(C#N)CC1)C12CC3CC(CC(C3)C1)C2)C(F)(F)F` (racemic) [I.1-753]: in assay [1] (dosage 25 g/ha), the “Effect (TRZAS)” value came to 10.

Consider `CCOC(=O)C=C(C)C#CC(O)(C1(C#N)CC1)C12CC3CC(CC(C3)C1)C2` (racemic) [I.1-762], for which the “Effect (TRZAS)” value in assay [1] (dosage 250 g/ha) amounted to 10.

In the case of `CCOC(=O)C=C(C=CC(O)(C(C)C)C1(C#N)CC1)CC` (racemic) [I.2-103], the “Effect (TRZAS)” value in assay [1] (dosage 250 g/ha) was 30.

As for `CC/C(C#CC(O)(C(C)C)C1(C#N)CC1)=C/C(=O)OC` (centres unmarked) [I.1-102], in assay [2], the ABI1 inhibition result is given as “++++ (inhibition≥90%)”. Also, in assay [3] (spray application 250 g/ha), the “Effect (BRSNS)” value is reported as 30.

Take `COC(=O)/C=C(\C#CC(O)(C(C)C)C1(C#N)CC1)C(F)(F)F` (centres unmarked) [I.1-120]: in assay [2], the ABI1 inhibition result is “+++ (90%>inhibition≥70%)”. Further, in assay [3] (spray application 250 g/ha), the “Effect (BRSNS)” value turned out to be 20.

Regarding `CC/C(C#CC(O)(C(C)C)C1(C#N)CC1)=C/C(=O)NC1CC1` (centres unmarked) [I.1-157, (2Z)-6-(1-Cyanocyclopropyl)-N-cyclopropyl-3-ethyl-6-hydroxy-7-methyloct-2-en-4-ynamide], the “Effect (TRZAS)” value in assay [1] (dosage 25 g/ha) is listed as 10.

Consider `CC/C(C#CC(O)(c1ccc(F)cc1)C1(C#N)CC1)=C/C(=O)OC` (centres unmarked) [I.1-502], for which the ABI1 inhibition entry in assay [2] is recorded as “++++ (inhibition≥90%)”. The “Effect (BRSNS)” value in assay [3] (spray application 250 g/ha) is 20-30.

Regarding `CCOC(=O)/C=C(\C#CC(O)(c1ccc(F)cc1)C1(C#N)CC1)CC` (centres unmarked) [I.1-503, Ethyl (2Z)-6-(1-cyanocyclopropyl)-3-ethyl-6-(4-fluorophenyl)-6-hydroxyhex-2-en-4-ynoate], in assay [2], the inhibition (commonly the change of the read-out against control, counted positive when it falls) is greater than 90%. The “Effect (BRSNS)” value in assay [3] (spray application 25 g/ha) was 20-30.

For the molecule `CC/C(C#CC(O)(C(C)C)C1(C#N)CC1)=C/C(=O)OCCOC` (centres unmarked) [I.1-606, 2-Methoxyethyl (2Z)-6-(1-cyanocyclopropyl)-3-ethyl-6-hydroxy-7-methyloct-2-en-4-ynoate], the inhibition in assay [2] was greater than 90%. The “Effect (BRSNS)” value in assay [3] (spray application 250 g/ha) is recorded as 20.

As for `CC/C(C#CC(O)(c1ccc(F)cc1)C1(C#N)CC1)=C/C(=O)OCCOC` (centres unmarked) [I.1-614], the ABI1 inhibition result in assay [2] is reported as “++++ (inhibition≥90%)”. Further, the “Effect (BRSNS)” value in assay [3] (spray application 250 g/ha) is given as 10-20.

For `COC(=O)/C=C(\C#CC(O)(C1CCC1)C1(C#N)CC1)C(F)(F)F` (centres unmarked) [I.1-662], in assay [1] (dosage 25 g/ha), the “Effect (TRZAS)” value is on record as 10-20. In addition, the ABI1 inhibition entry in assay [2] was “++++ (inhibition≥90%)”.

For the molecule `CCOC(=O)/C=C(/C)C#CC(O)(C1CCCCC1)C1(C#N)CC1` (centres unmarked) [I.1-702], the “Effect (TRZAS)” value in assay [1] (dosage 250 g/ha) amounted to 10. Besides, the ABI1 inhibition result in assay [2] was “++++ (inhibition≥90%)”.

`COC(=O)/C=C(\C=C\C(O)(C(C)C)C1(C#N)CC1)C(F)(F)F` (centres unmarked) [I.2-120, Methyl (2E,4E)-6-(1-cyanocyclopropyl)-6-hydroxy-7-methyl-3-(trifluoro-methyl)octa-2,4-dienoate]: the inhibition in assay [2] is greater than 90%. In addition, the “Effect (BRSNS)” value in assay [3] (spray application 250 g/ha) was determined as 30.

Values taken from US10322995B2, “Substituted cyano cycloalkyl penta-2,4-dienes, cyano cycloalkyl pent-2-en-4-ynes, cyano heterocyclyl penta-2,4-dienes and cyano heterocyclyl pent-2-en-4-ynes as active substances against abiotic plant stress” (BAYER CROPSCIENCE AKTIENGESELLSCHAFT, priority 2014, dated 2019).
